Experimental data reported in PMC12124388, “High-affinity PQQ import is widespread in Gram-negative bacteria” (Science Advances, 2025).

Columns and labels:
PqqU (formerly YncD) [1] = biological target: T1, PqqU (formerly YncD) (Escherichia coli, UniProt P76115); experiment: isothermal titration calorimetry; format: binding; settings: 50 mM tris-HCl pH 7.4, 150 mM NaCl; LMNG-purified, excess detergent removed; PQQ as disodium salt, oxidized; curve not accurately fitted, Kd only stated as low to subnanomolar range
T1 construct: 10xHis-tagged PqqU from pET-20b-pqqU, expressed in E. coli BL21 (DE3) C41, purified from membranes (DDM or LMNG), 76 kDa monomer; 700 residues in full, 39-699 modelled
T1 sequence (P76115 24-700): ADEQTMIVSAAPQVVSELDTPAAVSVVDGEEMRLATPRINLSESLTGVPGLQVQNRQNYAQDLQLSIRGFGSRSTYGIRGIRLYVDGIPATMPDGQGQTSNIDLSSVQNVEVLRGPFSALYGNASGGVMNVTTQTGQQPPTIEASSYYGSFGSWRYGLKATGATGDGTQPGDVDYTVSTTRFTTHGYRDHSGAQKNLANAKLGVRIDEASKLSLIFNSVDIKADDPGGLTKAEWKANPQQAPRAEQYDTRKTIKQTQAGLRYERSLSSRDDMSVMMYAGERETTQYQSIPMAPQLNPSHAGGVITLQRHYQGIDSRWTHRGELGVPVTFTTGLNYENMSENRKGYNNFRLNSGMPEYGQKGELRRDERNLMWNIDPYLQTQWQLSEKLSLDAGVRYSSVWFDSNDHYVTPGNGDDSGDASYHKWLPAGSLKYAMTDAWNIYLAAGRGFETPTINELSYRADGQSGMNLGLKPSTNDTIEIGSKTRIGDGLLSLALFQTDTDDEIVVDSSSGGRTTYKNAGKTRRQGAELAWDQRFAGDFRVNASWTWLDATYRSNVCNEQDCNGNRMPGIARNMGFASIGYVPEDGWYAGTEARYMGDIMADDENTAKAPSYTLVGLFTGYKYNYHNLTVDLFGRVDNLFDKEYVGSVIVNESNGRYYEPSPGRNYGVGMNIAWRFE

PqqU (formerly YncD) [2] = biological target: T1, PqqU (formerly YncD); experiment: cryo-EM structure of complex, […] Å; format: binding; settings: 43 μM PqqU with 910 μM PQQ; LMNG micelle; single PQQ in internal extracellular-side cavity, loops 7 and 8 closed; no metal bound to PQQ

## O=C(O)c1cc(C(=O)O)c2c(n1)C(=O)C(=O)c1cc(C(=O)O)[nH]c1-2 [PQQ]
PqqU (formerly YncD) [1]
  Kd: likely with a Kd in the low to subnanomolar range
PqqU (formerly YncD) [2]
  cryo-EM structure of complex, 1.99 Å: we used cryo-EM to resolve the structure of the PqqU-PQQ complex
